Columns and labels:
Format in all cases: in vivo
[1] = tested on: Western Flower Thrips (Frankliniellla occidentalis (Pergande)); assay: Test F: control of Western Flower Thrips through contact and/or systemic means; details: sprayed at 250 ppm; Soleil bean plant, adult thrips; held for 6 days
Description: (§1) Test compounds were formulated using a solution containing 10% acetone, 90% water and 300 ppm X-77® Spreader Lo-Foam Formula non-ionic surfactant containing alkylarylpolyoxyethylene, free fatty acids, glycols and isopropanol (Loveland Industries, Inc. Greeley, Colo., USA). The formulated compounds were applied in 1 mL of liquid through a SUJ2 atomizer nozzle with ⅛ JJ custom body (Spraying Systems Co. Wheaton, Ill., USA) positioned 1.27 cm (0.5 inches) above the top of each test unit. Test compounds were sprayed at the rates indicated, and each test was replicated three times.
For evaluating control of the Western Flower Thrips (Frankliniellla occidentalis (Pergande)) through contact and/or systemic means, the test unit consisted of a small open container with a 5-7-day-old Soleil bean plant inside.
Test compounds were formulated and sprayed at 250 ppm. After spraying, the test units were allowed to dry for 1 hour, and then 22-27 adult thrips were added to each unit. A black, screened cap was placed on top, and the test units were held for 6 days at 25° C. and 45-55% relative humidity.

[2] = tested on: diamondback moth (Plutella xylostella (L.)); assay: Test A: control of diamondback moth, foliar spray on mustard plant; details: neonate larvae, assessed after 6 days
Description: as §1
For evaluating control of diamondback moth (Plutella xylostella (L.)) the test unit consisted of a small open container with a 12-14-day-old mustard plant inside. This was pre-infested with ˜50 neonate larvae that were dispensed into the test unit via corn cob grits using an inoculator. The larvae moved onto the test plant after being dispensed into the test unit.
Test compounds were formulated and sprayed at 250 and/or 50 ppm. After spraying of the formulated test compound, each test unit was allowed to dry for 1 hour and then a black, screened cap was placed on top. The test units were held for 6 days in a growth chamber at 25° C. and 70% relative humidity. Plant feeding damage was then visually assessed based on foliage consumed, and larvae were assessed for mortality.

[3] = tested on: green peach aphid (Myzus persicae (Sulzer)); assay: Test E: control of green peach aphid through contact and/or systemic means; details: 144 h, radish plant, assessed after 6 days; for mortality at 250 ppm: sprayed at 250 ppm
Description: as §1
For evaluating control of green peach aphid (Myzus persicae (Sulzer)) through contact and/or systemic means, the test unit consisted of a small open container with a 12-15-day-old radish plant inside. This was pre-infested by placing on a leaf of the test plant 30-40 aphids on a piece of leaf excised from a culture plant (cut-leaf method). The aphids moved onto the test plant as the leaf piece desiccated. After pre-infestation, the soil of the test unit was covered with a layer of sand.
Test compounds were formulated and sprayed at 250 and/or 50 ppm. After spraying of the formulated test compound, each test unit was allowed to dry for 1 hour and then a black, screened cap was placed on top. The test units were held for 6 days in a growth chamber at 19-21° C. and 50-70% relative humidity. Each test unit was then visually assessed for insect mortality.

[4] = tested on: fall armyworm (Spodoptera frugiperda (J. E. Smith)); assay: Test B: control of fall armyworm, foliar spray on corn (maize) plant; details: 1-day-old larvae, assessed after 6 days
Description: as §1
For evaluating control of fall armyworm (Spodoptera frugiperda (J. E. Smith)) the test unit consisted of a small open container with a 4-5-day-old corn (maize) plant inside. This was pre-infested with 10-15 1-day-old larvae on a piece of insect diet.
Test compounds were formulated and sprayed at 250 and/or 50 ppm. After spraying of the formulated test compound, the test units were maintained in a growth chamber for 6 days at 25° C. and 70% relative humidity. Plant feeding damage was then visually assessed based on foliage consumed, and larvae were assessed for mortality.

[5] = tested on: corn planthopper (Peregrinus maidis (Ashmead)); assay: Test C: control of corn planthopper through contact and/or systemic means; details: 144 h, sprayed at 250 ppm, corn (maize) plant, nymphs, assessed after 6 days
Description: as §1
For evaluating control of corn planthopper (Peregrinus maidis (Ashmead)) through contact and/or systemic means, the test unit consisted of a small open container with a 3-4-day-old corn (maize) plant inside. White sand was added to the top of the soil prior to application of the test compound.
(§2) Test compounds were formulated and sprayed at 250 and/or 50 ppm. After spraying of the formulated test compound, the test units were allowed to dry for 1 h before they were post-infested with ˜15-20 nymphs (18-to-21-day-old). A black, screened cap was placed on the top of each test unit, and the test units were held for 6 days in a growth chamber at 22-24° C. and 50-70% relative humidity. Each test unit was then visually assessed for insect mortality.

[6] = tested on: potato leafhopper (Empoasca fabae (Harris)); assay: Test D: control of potato leafhopper through contact and/or systemic means; details: 144 h, Soleil bean plant, adults, assessed after 6 days; for mortality at 250 ppm: sprayed at 250 ppm
Description: as §1
For evaluating control of potato leafhopper (Empoasca fabae (Harris)) through contact and/or systemic means, the test unit consisted of a small open container with a 5-6-day-old Soleil bean plant (primary leaves emerged) inside. White sand was added to the top of the soil, and one of the primary leaves was excised prior to application of the test compound.
as §2, with “1 hour” for “1 h”, “with 5 potato leafhoppers (18-to-21-day-old adults).” for “with ˜15-20 nymphs (18-to-21-day-old).”, “of the” for “of each”, “at 20°” for “at 22-24°”, “and 70%” for “and 50-70%”

| SMILES | control efficacy (30% or less plant damage and/or 100% mortality) [1] | control efficacy (40% or less feeding damage and/or 100% mortality) ([2]; sprayed at 50 ppm) | control efficacy (40% or less feeding damage and/or 100% mortality) ([2]; sprayed at 250 ppm) | mortality at 250 ppm [3] | control efficacy (40% or less feeding damage and/or 100% mortality) ([4]; sprayed at 50 ppm) | control efficacy (40% or less feeding damage and/or 100% mortality) ([4]; sprayed at 250 ppm) | mortality at 250 ppm [5] | mortality at 50 ppm ([6]; sprayed at 50 ppm) | mortality at 250 ppm [6] | mortality at 50 ppm ([3]; sprayed at 50 ppm) |
| --- | --- | --- | --- | --- | --- | --- | --- | --- | --- | --- |
| FC(F)(F)c1ccnc(-n2cc(CN3CCC(C(F)(F)F)CC3)c(C3CCCC3)n2)c1 [Compound 25, 2-[3-cyclopentyl-4-[[4-(trifluoromethyl)-1-piperidinyl]methyl]-1H-pyrazol-1-yl]-4-(trifluoromethyl)pyridine] | very good to excellent levels of control efficacy | very good to excellent levels of control efficacy | very good to excellent levels of control efficacy | ≥ 80% | very good to excellent levels of control efficacy | very good to excellent levels of control efficacy | ≥ 80% | ≥ 80% | ≥ 80% | – |
| N#CC1CCN(Cc2cn(-c3cc(C(F)(F)F)ccn3)nc2C2CCCC2)CC1 [Compound 26, 1-[[3-cyclopentyl-1-[4-(trifluoromethyl)-2-pyridinyl]-1H-pyrazol-4-yl]methyl]-4-piperidinecarbonitrile] | very good to excellent levels of control efficacy | very good to excellent levels of control efficacy | very good to excellent levels of control efficacy | ≥ 80% | very good to excellent levels of control efficacy | very good to excellent levels of control efficacy | – | – | ≥ 80% | ≥ 80% |
| N#CC1CCN(Cc2cn(-c3ccc(Cl)c(Cl)c3)nc2C2CCC2)CC1 [Compound 27] | very good to excellent levels of control efficacy | very good to excellent levels of control efficacy | very good to excellent levels of control efficacy | – | very good to excellent levels of control efficacy | very good to excellent levels of control efficacy | – | – | – | – |
